Results as given in patent US20230039836A1, “AROMATIC SULPHONAMIDES DERIVATIVES THAT INHIBITS PDI A3, THEIR SYNTHESIS AND USE” (Uniwersytet Jagiellonski, priority 2020, published 2023).

Tests used:
[1] = tested on: MCF-7 (human breast adenocarcinoma, estrogen-positive); experiment: MTT antiproliferative assay, 48 h; assay type: cell-based; details: for IC50: Homo sapiens, MCF7, 48-hour exposition, read-out: Cytotoxicity, IC50, µM MCF-7
Experimental: (§1) About 2000-4000 cells per well (depending on line nature) were placed in 96-well plates and after 24 h compounds were added to the wells. Untreated cells were used as a control. The plates were incubated for 48 h, 37° C., 5% CO2. The number of surviving cells was determined using 3-(4,5-dimethylthiazol-2-yl)-2,5-diphenyltetrazolinium bromide (MTT). MTT-test: after incubating culture medium was removed and 200 µL fresh medium with 20 µL MTT (2 mg/mL in HBSS) was added in each well of the plate. After incubation (3 hr., 37° C., 5% CO2), the medium with MTT was removed and 200 µL DMSO were added at once to each sample. The samples were tested at 540 nm on Thermo Scientific Multiskan EX microplate photometer. The half-maximal inhibitory concentration (IC50) of each compound was calculated using Graph Pad Prism® 3.0.

[2] = tested on: MDA-MB-231 (human mammary breast adenocarcinoma); experiment: MTT antiproliferative assay, 48 h; assay type: cell-based; details: for IC50: Homo sapiens, MDA-MB-231, 48-hour exposition, read-out: Cytotoxicity, IC50, µM MDA-MB-231
Experimental: as §1

[3] = tested on: Caco-2 (human colon adenocarcinoma); experiment: MTT antiproliferative assay, 48 h; assay type: cell-based; details: for IC50: Homo sapiens, Caco-2, 48-hour exposition, read-out: Cytotoxicity, IC50, µM CaCo-2
Experimental: as §1

[4] = tested on: HT-1080 (human fibrosarcoma); experiment: MTT antiproliferative assay, 48 h; assay type: cell-based; details: 48-hour exposition, read-out: Cytotoxicity, IC50, µM HT-1080
Experimental: as §1

PDI A1 = target: T1, PDI A1 (Homo sapiens, UniProt P07237); experiment: Insulin turbidometric assay, inhibition of PDI A1; assay type: biochemical; details: insulin reduction, turbidity at 650 nm, 60 min incubation at 37° C.; read-out: Inhibition of PDI A1 (EC 50)
T1 construct: purchased Mybiosource; host or cells: E. coli
Experimental: The inhibitory effects compounds of invention on activity of PDI A1 was assess based on the insulin turbidometric assay. Enzymatic activity of PDIA1 was confirmed by measuring the turbidity increase at 650 nm due to insulin reduction. The assay mixture was prepared by addition 10 ug/ml PDIA1 (E.coli recombinant protein; Mybiosource), 0.1 mM phosphate buffer (pH7.6), 1 mM EDTA, 0.087 mM DTT and with or without tested compound and was incubated for 60 min, at 37° C. Reaction was started by addition insulin and DTT. Final concentration of insulin and DTT in assay mixture was 0.15 mM and 0.174 mM, respectively. Turbidity was detected at 650 nm against reference samples without PDI A1s. The measurements were performed at 650 nm using 120-s recordings.

T1 sequence (P07237 18-508, species assumed): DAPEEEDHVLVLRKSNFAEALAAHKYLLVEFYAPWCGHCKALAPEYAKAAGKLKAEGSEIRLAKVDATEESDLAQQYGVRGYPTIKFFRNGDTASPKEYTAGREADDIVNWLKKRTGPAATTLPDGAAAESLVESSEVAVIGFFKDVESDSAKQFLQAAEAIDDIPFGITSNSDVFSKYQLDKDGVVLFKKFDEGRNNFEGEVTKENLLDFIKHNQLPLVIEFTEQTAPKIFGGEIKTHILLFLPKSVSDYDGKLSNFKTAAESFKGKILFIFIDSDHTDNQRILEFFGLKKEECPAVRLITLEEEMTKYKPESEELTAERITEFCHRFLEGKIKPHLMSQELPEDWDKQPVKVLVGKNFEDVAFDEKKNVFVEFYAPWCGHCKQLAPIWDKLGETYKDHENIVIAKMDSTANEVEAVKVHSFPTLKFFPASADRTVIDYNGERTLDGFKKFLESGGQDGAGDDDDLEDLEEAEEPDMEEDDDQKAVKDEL

With `CNc1ccc2cc(S(=O)(=O)N3CC3C(=O)OC)ccc2c1Cl` (stereo not shown) [Compound C-3393, Methyl 1-[[5-chloro-6-(methylamino)-2-naphthyl]sulfonyl]aziridine-2-carboxylate] the IC50 [1] was 29 ± 3 µM, the IC50 [2] was 32 ± 4 µM and the IC50 [3] was 35 ± 1 µM. It also gave an IC50 [4] of 0.46 ± 0.04 µM, an EC50 (PDI A1) of 0.34 µM and a melting point of 170 to 172 °C.

`COC(=O)C1CN1S(=O)(=O)c1ccc2oc(=O)ccc2c1` (stereo not shown) [Compound C-3355, Methyl 1-(2-oxochromen-6-yl)sulfonylaziridine-2-carboxylate] gave an IC50 [1] of 276 ± 9 µM, an IC50 [2] of 247 ± 14 µM and an IC50 [3] of 39 ± 1 µM. The IC50 [4] was 20 ± 1 µM, the EC50 (PDI A1) was 7.7 µM and the melting point was 42 to 44 °C.

Work on `COC(=O)C1CN1S(=O)(=O)c1ccc2[nH]c(=O)ccc2c1` (stereo not shown) [Compound C-3350, Methyl 1-[(2-oxo-1H-quinolin-6-yl)sulfonyl]aziridine-2-carboxylate] yielded an IC50 [1] of 80 ± 8 µM, an IC50 [2] of 136 ± 6 µM and an IC50 [3] of 49 ± 5 µM. The IC50 [4] was 16 ± 5 µM, the EC50 (PDI A1) was 5.5 µM and the melting point was 139 to 141 °C.

With `COC(=O)C1CN1S(=O)(=O)c1ccc([N+](=O)[O-])cc1` (stereo not shown) [Compound C-3212, Methyl 1-(4-nitrophenyl)sulfonylaziridine-2-carboxylate] the EC50 (PDI A1) was 34 µM and the melting point was 106 to 108 °C.

Work on `COC(=O)[C@@H]1CN1S(=O)(=O)c1ccc(C)cc1` (stereo partly drawn) [Compound C-3535, Methyl (2S)-1-(p-tolylsulfonyl)aziridine-2-carboxylate] yielded an IC50 [1] of 81 µM, an IC50 [2] of 107 ± 11 µM and an IC50 [3] of 35 ± 7 µM. It also gave an IC50 [4] of 84 ± 3 µM and an EC50 (PDI A1) of 11.2 µM.

With `CN(C)c1ccc2c(S(=O)(=O)N3CC3C(N)=O)cccc2c1` (stereo not shown) [Compound C-3459, 1-[[6-(Dimethylamino)-1-naphthyl]sulfonyl]aziridine-2-carboxamide] the “Cytotoxicity, IC50, µM MCF-7” value ([1]; 48-hour exposition) was “n.e”, the “Cytotoxicity, IC50, µM MDA-MB-231” value ([2]; 48-hour exposition) was “n.e” and the “Cytotoxicity, IC50, µM CaCo-2” value ([3]; 48-hour exposition) was “n.e”. For the same compound, the IC50 [4] was > 500 µM, the EC50 (PDI A1) was 33 µM and the melting point was 197 to 199 °C.

`NC(=O)C1CN1S(=O)(=O)c1ccc(N)cc1` (stereo not shown) [Compound C-3218, 1-(4-Aminophenyl)sulfonylaziridine-2-carboxamide] gave an IC50 [1] of 137 ± 14 µM, an IC50 [2] of 64 ± 5 µM and an IC50 [3] of 200 ± 1 µM. The IC50 [4] was 200 ± 3 µM, the EC50 (PDI A1) was > 200 µM and the melting point was 139 to 141 °C.

With `COC(=O)C1CN1S(=O)(=O)c1ccco1` (stereo not shown) [Compound C-3346, Methyl 1-(2-furylsulfonyl)aziridine-2-carboxylate] the IC50 [1] was 458 ± 6 µM, the IC50 [2] was > 200 µM and the IC50 [3] was 17 ± 2 µM. The IC50 [4] was 169 ± 11 µM and the EC50 (PDI A1) was > 200 µM.

For `CCCCc1ccc(S(=O)(=O)N2CC2C=O)cc1` (stereo not shown) [Compound C-3273, 1-(4-Butylphenyl)sulfonylaziridine-2-carbaldehyde], the IC50 [1] was 92 ± 2 µM, the IC50 [2] was 35 ± 3 µM and the IC50 [3] was 56 ± 12 µM. The IC50 [4] was 31 ± 0.9 µM and the EC50 (PDI A1) was 3 µM.

For `COC(=O)C1CN1S(=O)(=O)c1ccc(NC(C)=O)cc1` (stereo not shown) [Compound C-3308, Methyl 1-(4-acetamidophenyl)sulfonylaziridine-2-carboaylate], the IC50 [1] was 485 ± 32 µM, the IC50 [2] was > 500 µM and the IC50 [3] was 100 ± 5 µM. For the same compound, the IC50 [4] was 120 ± 6 µM and the EC50 (PDI A1) was 18 µM.

In the case of `Cc1ccc(S(=O)(=O)N2CC2C=O)cc1` (stereo not shown) [Compound C-3262, 1-(p-Tolylsulfonyl)aziridine-2-carbaldehyde], the IC50 [1] is reported as 7.2 ± 0.8 µM, the IC50 [2] is reported as 6.8 ± 0.8 µM and the IC50 [3] is reported as 13.5 ± 0.8 µM. For the same compound, the IC50 [4] was 3.8 ± 0.3 µM and the EC50 (PDI A1) was 160 µM.

Compound `COC(=O)[C@H]1CN1S(=O)(=O)c1cccc2cc(N(C)C)ccc12` (stereo partly drawn) [Compound C-3570, Methyl (2R)-1-[[6-(dimethylamino)-1-naphthyl]sulfonyl]aziridine-2-carboxylate] has an IC50 [1] of 29 ± 2 µM, an IC50 [2] of 14 ± 3 µM and an IC50 [3] of 13 ± 1 µM. For the same compound, the IC50 [4] was 12 ± 1 µM and the EC50 (PDI A1) was 11 µM.

`Cc1ccc(S(=O)(=O)N2CC2C#N)cc1` (stereo not shown) [Compound C-3314, 1-(p-Tolylsulfonyl)aziridine-2-carbonitrile] gave an IC50 [1] of 206 ± 21 µM, an IC50 [2] of 104 ± 3 µM and an IC50 [3] of 14 ± 0.8 µM. It also gave an IC50 [4] of 4.5 ± 1 µM and an EC50 (PDI A1) of 4.1 µM.
